Values after ≈ are worked out from the molar mass of the structure shown.
How the values were obtained:
Format in all cases: functional, cell-based
[1] = Cytotoxicity against human KPL-4 cells assessed as inhibition of cell growth incubated for 3 days by CellTiter-Glo luminescent assay; settings: KPL4, 72 h
[2] = tested on: MOLT-4; experiment: Cytotoxicity against human MOLT-4 cells assessed as inhibition of cell growth incubated for 72 hrs by XTT assay; settings: MOLT-4, 72 h
[3] = tested on: T47D; experiment: Cytotoxicity against human T47D cells
[4] = tested on: MES-SA; experiment: Cytotoxicity against human MES-SA cells assessed as inhibition of cell growth incubated for 72 hrs by CellTiter-Glo luminescent assay
[5] = tested on: LoVo; experiment: Cytotoxicity against human LoVo cells assessed as inhibition of cell growth incubated for 72 hrs by Promega CellTiter-Glo assay

C=C1C[C@H]2C=Nc3cc(OCCCCCOc4cc5c(cc4OC)C(=O)N4CC(=C)C[C@H]4C(O)N5C(=O)OCc4ccc(SSC(C)(C)C)cc4)c(OC)cc3C(=O)N2C1 (stereo not given in full)
IC50 [1]: 6.3 ng/mL (≈ 7.35 nM)

CCN(C(C)=O)[C@H]1CO[C@@H](O[C@H]2[C@H](O[C@H]3C#C/C=C\C#C[C@]4(O)CC(=O)C(NC(=O)OC)=C3/C4=C\CSC(C)=O)O[C@H](C)[C@@H](NO[C@H]3C[C@H](O)[C@H](SC(=O)c4c(C)c(I)c(O[C@@H]5O[C@@H](C)[C@H](O)[C@@H](OC)[C@H]5O)c(OC)c4OC)[C@@H](C)O3)[C@@H]2O)C[C@@H]1OC
IC50 [2]: 0.00015 nM

CC[C@H](C)[C@@H]1NC(=O)CNC(=O)[C@H]2CC(=O)[C@H]([C@@H](C)[C@@H](O)CO)NC(=O)[C@@H]3C[C@@H](O)CN3C(=O)[C@H](CC(=O)O)NC(=O)[C@H](C[S+]([O-])c3[nH]c4cc(O)ccc4c3C2)NC(=O)CNC1=O (stereo not given in full)
IC50 [3]: ~500 nM

COc1c2c(c(O)c3c4c(c(C)cc13)C1O[C@@]3(C(OC)OC)OC1[C@@](O[C@H]1C[C@@H](O)[C@@](O)(C(C)=O)[C@@H](C)O1)(O4)C31CO1)C(=O)[C@@H](C)C[C@@H]2O[C@H]1C[C@@](C)(O)[C@H](OC(C)=O)[C@@H](C)O1 (stereo not given in full)
IC50 [4]: 0.74 nM

CC(C)(C)[C@H](c1cc(-c2cc(F)ccc2F)cn1Cc1ccccc1)N(CCCN)C(=O)CO
IC50 [5]: < 0.03 nM
